Here are results for six compounds from ChEMBL document CHEMBL4813925, “Antibacterial Drimane Sesquiterpenes from Aspergillus ustus” (J Nat Prod, 2021).

The structures appear in SMILES notation. Converted amounts (≈) assume the structure as drawn. The source made the active and inactive calls. The calls are words filed in the database; no cut-off is given here.

Data set [1] concerns Staphylococcus aureus. The data set is described as follows: Synergistic antibacterial activity against multidrug-resistant Staphylococcus aureus ATCC BAA-44 assessed as bacterial growth inhibition in presence of ustusoic-acidB. The data set is classed as functional.
For data set [2], the system named is Bacillus subtilis. The data set is described as follows: Antibacterial activity against Bacillus subtilis ATCC 49343 assessed as bacterial growth inhibition by CLSI protocol based microbroth dilution method. The format is functional. On the technique in general: In broth dilution the organism is exposed to a series of concentrations in liquid medium.
The test system of another data set is Candida albicans. The experiment in a line: Antifungal activity against Candida albicans ATCC 90027 assessed as fungal growth inhibition by CLSI protocol based microbroth dilution method. The format is functional, organism-based.
The test system of data set [3] is Enterococcus faecium. The data set is described as follows: Synergistic antibacterial activity against vancomycin-resistant Enterococcus faecium ATCC 700221 assessed as coefficient of drug interaction in presence of Stromemycin. The format is functional.
The subject of data set [4] is Enterococcus faecium. The data set is described as follows: Synergistic antibacterial activity against vancomycin-resistant Enterococcus faecium ATCC 700221 assessed as bacterial growth inhibition in presence of ustusoic-acidB. The data set is classed as functional.
Data set [5] has as its system Staphylococcus aureus. The data set is described as follows: Synergistic antibacterial activity against multidrug-resistant Staphylococcus aureus ATCC BAA-44 assessed as coefficient of drug interaction in presence of Stromemycin. The format is functional.
For data set [6], the system named is Bacillus subtilis. The experiment in a line: Synergistic antibacterial activity against Bacillus subtilis ATCC 49343 assessed as bacterial growth inhibition in presence of ustusoic-acidB. The data set is classed as functional.
The test system of data set [7] is Enterococcus faecium. The experiment in a line: Antibacterial activity against vancomycin-resistant Enterococcus faecium ATCC 700221 assessed as bacterial growth inhibition by CLSI protocol based microbroth dilution method. The format is functional.
In data set [8] the test system is Staphylococcus aureus. The experiment in a line: Antibacterial activity against multidrug-resistant Staphylococcus aureus ATCC BAA-44 assessed as bacterial growth inhibition by CLSI protocol based microbroth dilution method. The format is functional.
The test system of data set [9] is Bacillus subtilis. The experiment in a line: Synergistic antibacterial activity against Bacillus subtilis ATCC 49343 assessed as coefficient of drug interaction in presence of Stromemycin. The format is functional.
The next data set relates to HCT-116. The data set is described as follows: Cytotoxicity against human HCT-116 cells by MTT assay. The data set is classed as cell-based. For orientation: Tetrazolium dyes change colour on reduction, which living cells bring about.
The test system of data set [10] is Bacillus subtilis. The data set is described as follows: Synergistic antibacterial activity against Bacillus subtilis ATCC 49343 assessed as bacterial growth inhibition in presence of Stromemycin. The data set is classed as functional.
For data set [11], the system named is Enterococcus faecium. The data set is described as follows: Synergistic antibacterial activity against vancomycin-resistant Enterococcus faecium ATCC 700221 assessed as bacterial growth inhibition in presence of Stromemycin. The format is functional.
The subject of data set [12] is Enterococcus faecium. The experiment in a line: Synergistic antibacterial activity against vancomycin-resistant Enterococcus faecium ATCC 700221 assessed as coefficient of drug interaction in presence of ustusoic-acidB. The data set is classed as functional.
Data set [13] concerns Bacillus subtilis. The experiment in a line: Synergistic antibacterial activity against Bacillus subtilis ATCC 49343 assessed as coefficient of drug interaction in presence of ustusoic-acidB. The data set is classed as functional.
Data set [14] has as its system Staphylococcus aureus. The experiment in a line: Synergistic antibacterial activity against multidrug-resistant Staphylococcus aureus ATCC BAA-44 assessed as bacterial growth inhibition in presence of Stromemycin. The format is functional.
In data set [15] the test system is Staphylococcus aureus. The data set is described as follows: Synergistic antibacterial activity against multidrug-resistant Staphylococcus aureus ATCC BAA-44 assessed as coefficient of drug interaction in presence of ustusoic-acidB. The format is functional.

Turning to `CCC/C=C/C=C/CCc1cc(OC(=O)c2c(CC/C=C/C=C/CCC)cc(O)c([C@@H]3O[C@H](CO)[C@@H](O)[C@H](O)[C@H]3O)c2O)cc(O)c1C(=O)O`, the MIC with Staphylococcus aureus [1] is 64 µg/mL; in the data set with Bacillus subtilis [2], 64 µg/mL (≈ 91.8 µM); in the data set with Enterococcus faecium [4] it was 32 µg/mL; with Bacillus subtilis [6] it was 8 µg/mL; in the data set on Enterococcus faecium [7], more than 128 µg/mL; in the data set with Staphylococcus aureus [8] (read-out: MIC), more than 128 µg/mL. For the same compound, the result in the data set on Candida albicans was inactive. Besides, the CI in the data set on Enterococcus faecium [3] is listed as 0.00013; with Staphylococcus aureus [5], 0.00014; in the data set on Bacillus subtilis [9] it was 0.0009. In addition, the Activity result with HCT-116 is on record as “Non-Toxic”.

As for `C/C=C/C=C/C=C/C(=O)O[C@@H]1C=C(CO)[C@](O)(C(=O)O)[C@@]2(C)CCCC(C)(C)[C@H]12`, the MIC is 64 µg/mL (≈ 158 µM) in the data set with Bacillus subtilis [2], 128 µg/mL (≈ 316 µM) in the data set on Enterococcus faecium [7] and more than 128 µg/mL with Staphylococcus aureus [8] (read-out: MIC).

Broadly, the MIC99 is an inhibitory concentration at the 99% level, which refers to growth in some studies and to a panel of isolates in others. As for `O=C1CN(/N=C/c2ccc([N+](=O)[O-])o2)C(=O)N1` [NITROFURANTOIN], the MIC99 in the data set with Enterococcus faecium [7] stood at 125 µg/mL (≈ 525 µM).

Turning to `O=C(N[C@H](CO)[C@H](O)c1ccc([N+](=O)[O-])cc1)C(Cl)Cl` [CHLORAMPHENICOL], in the data set on Bacillus subtilis [2], the MIC99 stood at 125 µg/mL (≈ 387 µM).

As for `CN[C@H](CC(C)C)C(=O)N[C@H]1C(=O)N[C@@H](CC(N)=O)C(=O)N[C@H]2C(=O)N[C@H]3C(=O)N[C@H](C(=O)N[C@H](C(=O)O)c4cc(O)cc(O)c4-c4cc3ccc4O)[C@H](O)c3ccc(c(Cl)c3)Oc3cc2cc(c3O[C@@H]2O[C@H](CO)[C@@H](O)[C@H](O)[C@H]2O[C@H]2C[C@](C)(N)[C@H](O)[C@H](C)O2)Oc2ccc(cc2Cl)[C@H]1O` [VANCOMYCIN], in the data set on Staphylococcus aureus [8] (read-out: MIC100), the MIC stood at 125 µg/mL (≈ 86.3 µM).

Regarding `C/C=C/C=C/C=C/C(=O)O[C@@H]1C=C(C=O)[C@](O)(C(=O)O)[C@@]2(C)CCCC(C)(C)[C@H]12`, the MIC with Bacillus subtilis [10] was 8 µg/mL; in the data set with Bacillus subtilis [2], 38 µg/mL (≈ 94.4 µM); with Enterococcus faecium [11], 32 µg/mL; with Enterococcus faecium [7] it was 67 µg/mL (≈ 166 µM); with Staphylococcus aureus [8] (read-out: MIC) it was more than 128 µg/mL; in the data set on Staphylococcus aureus [14] it was 64 µg/mL. The outcome with Candida albicans was inactive. For the same compound, the CI in the data set on Enterococcus faecium [12] is given as 0.00013; with Bacillus subtilis [13], 0.0009; in the data set on Staphylococcus aureus [15], 0.00014. Besides, in the data set on HCT-116, the Activity result is “Non-Toxic”.
